PubChem BioAssay (NCI)
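Step 1: Grow cells in 96-well plates. Step 2: Expose to compound for 48 hours at 5 concentrations. Step 3: Interpolate endpoints linearly; if unreached, use highest concentration. At the TGI there is no net growth.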

Tests used:
Assay in all cases: DTP human tumour cell line panel, 48 h
[1] = system: A549 NSCLC
[2] = system: LOX IMVI melanoma
[3] = system: SNB-19 CNS
[4] = system: A498 renal
[5] = system: UO-31 renal
[6] = system: SW-620 colon
[7] = system: BT-549 breast
[8] = system: HS 578T breast
[9] = system: SK-OV-3 ovarian
[10] = system: SF-268 CNS
[11] = system: SK-MEL-5 melanoma
[12] = system: COLO 205 colon
[13] = system: HCT-116 colon
[14] = system: MALME-3M melanoma

Compound | TGI [1] [µM] | TGI [2] [µM] | TGI [3] [µM] | TGI [4] [µM] | TGI [5] [µM] | TGI [6] [µM] | TGI [7] [µM] | TGI [8] [µM] | TGI [9] [µM] | TGI [10] [µM] | TGI [11] [µM] | TGI [12] [µM] | TGI [13] [µM] | TGI [14] [µM]
N#Cc1nc(C2=C(Cl)c3ccccc3OC2)[nH]c1C#N | > 100 | 45.6 | > 100 | 66.1 | 59.9 | > 100 | 48 | > 100 | > 100 | > 100 | 51.1 |  |  | 
CC(=O)OC1(C)C=CC(=O)C=C1 | > 100 | > 100 | > 100 | 84 | 46.4 | > 100 | > 100 | > 100 | > 100 | > 100 | > 100 | > 100 | > 100 | 
NC(N)=N/N=C/c1c(-c2cccc([N+](=O)[O-])c2)nc2n1CCS2 | 41 | 73.1 | 32.1 | 32.9 | 30.6 | 37.7 | 32.2 | 32.1 |  | 46.6 | 32.5 | 60.6 | > 100 | 38.1
CCN(CC)CC(=O)O[C@]1(CC)C(=O)OCc2c1cc1n(c2=O)Cc2cc3ccccc3nc2-1 | 2.37 | 0.177 | 11.3 | 0.256 | 0.182 | 4.33 | 1.93 | > 100 |  |  | 0.171 | 3.22 | 0.352 | 2.61
CN(/N=C/c1ccc(OCc2cccc(COc3ccc(C=O)cc3)n2)cc1)c1cnn(-c2ccc(Cl)cc2Cl)c(=O)c1Cl | > 100 | > 100 | > 100 | > 100 | > 100 | > 100 | > 100 | > 100 |  | > 100 | > 100 | > 100 | > 100 | > 100
CC1ON2CCCC2[C@H]1C(=O)N1C2CC3CCC2(CS1(=O)=O)C3(C)C (stereo not given in full) | > 100 | > 100 |  | > 100 | > 100 | > 100 | > 100 | > 100 | > 100 | > 100 | > 100 | > 100 | > 100 | > 100
CC(C)=CC(=O)C[C@H]1C(=O)O[C@@H]2C[C@H]3C(C)=CC(=O)[C@@H](O)[C@]3(C)[C@H]3[C@@]4(O)OC[C@]32[C@@H]1[C@@H](C)[C@H]4O |  |  |  | 1.15 |  | 6.26 | 0.205 | 0.258 | 4.98 | 0.21 | 0.0612 |  | 0.114 | 0.0619
CC(=O)N[C@@H](Cc1ccc(O)cn1)C(=O)NCc1cccc(Cl)c1 | > 100 | > 100 | > 100 | > 100 | > 100 | > 100 | > 100 | > 100 | > 100 | > 100 | > 100 | > 100 | > 100 | 
O=C1O/C(=C(/Cl)c2cccc3ccccc23)c2ccccc21 | > 100 |  | > 100 | > 100 | > 100 | > 100 | > 100 | > 100 | > 100 | > 100 | > 100 | > 100 | > 100 | > 100
